For data set [1] the following is noted: reported in U.S. Pat. No. 5,880,283; cited from earlier work.
The conditions of data set [2]: reported in U.S. Pat. No. 5,880,283; cited from earlier work. This is another data set of the same source.
A short description of data set [3]: Exposure of powder as a thin layer in a controlled humidity cell; resulting crystalline form by x-ray diffraction. In kind it is physicochemical. As to conditions: 200 mg powder as thin layer. As for the experimental part: As used herein in connection with the present invention, x-ray diffraction refers to x-ray diffraction by the powder diffraction technique. X-ray powder diffraction analysis was performed using a Scintag powder diffractometer with variable goniometer, a Cu source, and a solid state detector. A standard round aluminum sample holder with zero background quartz plate was used. Samples were scanned from 2° to 40° 2θ at 3° per minute in the continuous scan mode. Reflections are reported as peak maxima in the intensity vs. 2θ plots, and are subject to the normal experimental error (uncertainty). Samples were promptly analyzed “as is”.
In another embodiment, the present invention provides a method of making a mixture of novel crystalline form O and prior-art sesqihydrate. The ratios will depend, inter alia, on the conditions of treatment. The mixtures can be made by exposing prior art forms omega or TE, or crystalline form C (characterized by x-ray reflections at 7.2°, 10.8°, 15.8°, 21.8°, and 26.2°±0.2° 2θ) to an atmosphere having a relative humidity of at least about 60% (form c), or at least about 80% (form TE and omega) for an exposing time. The exposing time will generally be between about 24 hours and two weeks.
Preferably, the form omega, TE, or C is exposed as a thin layer of particles or crystals to facilitate diffusion of gasses and vapors. Preferably, the exposing is at ambient temperature.
The present invention can be further illustrated with the following non-limiting examples. In the following examples, the polymorphic or pseudopolymorphic form of gatifloxacin was determined by x-ray diffraction.
Gatifloxacin in form Ω (200 mg powder) was spread as a thin layer in a container having short vertical walls. The container was placed in a controlled humidity cell at 100% RH for 1 week.

For data set [4] the following is noted: among the crystalline forms, per WO 02/22126 A1; cited from earlier work.
The conditions of data set [5]: room temperature, among the crystalline forms, per WO 02/22126 A1; cited from earlier work.

On to `COc1c(N2CCNC(C)C2)c(F)cc2c(=O)c(C(=O)O)cn(C3CC3)c12` (stereo not drawn) [sesquihydrate, gatifloxacin], for which, in data set [1], the hygroscopicity entry was “less hygroscopic”. The stability in manufacturing result in data set [2] is reported as “more stable”.
Consider `COc1c(N2CCNC(C)C2)c(F)cc2c(=O)c(C(=O)O)cn(C3CC3)c12` (stereo not drawn) [form C, gatifloxacin], for which the “crystalline form found after humidity exposure” value (“crystalline form found” below) in data set [3] (60% RH, two weeks) is “approximately 80:20 mixture by weight of form C and form O”; in data set [3] (80% RH, two weeks) it was “approximately 30:70 mixture by weight of form O and sesquihydrate”; in data set [3] (100% RH, two weeks) it was “mixture of form O and sesquihydrate”.
With `COc1c(N2CCNC(C)C2)c(F)cc2c(=O)c(C(=O)O)cn(C3CC3)c12` (stereo not drawn) [form TE, gatifloxacin], the “crystalline form found” value in data set [3] (80% RH, two weeks) was “approximately equal weight mixture (1:1) of form O and sesquihydrate”; in data set [3] (100% RH, two weeks) it was “approximately equal weight (1:1) mixture of form O and sesquihydrate”.
Turning to `COc1c(N2CCNC(C)C2)c(F)cc2c(=O)c(C(=O)O)cn(C3CC3)c12` (stereo not drawn) [hemihydrate, gatifloxacin], the hygroscopicity result in data set [1] is listed as “hygroscopic”.
Consider `COc1c(N2CCNC(C)C2)c(F)cc2c(=O)c(C(=O)O)cn(C3CC3)c12` (stereo not drawn) [form Ω, gatifloxacin], for which the “crystalline form found” value in data set [3] (80% RH, 1 week) is “approximately equal weight (1:1) mixture of form O and form Ω”; in data set [3] (100% RH, 1 week), “approximately equal weight (1:1) mixture of form O and sesquihydrate”.
In the case of `COc1c(N2CCNC(C)C2)c(F)cc2c(=O)c(C(=O)O)cn(C3CC3)c12` (stereo not drawn) [pentahydrate, gatifloxacin], in data set [4], the thermodynamic stability entry was “most thermodynamically stable form”. For the same compound, in data set [5], the aqueous solubility result was “lowest”.

(Values after patent US7411067B2, “Crystalline forms of gatifloxacin” (Teva Pharmaceutical Industries Ltd, priority 2002, dated 2008).)
